Measured values as given in patent US20230107642A1 (Erasca, Inc., priority 2020, published 2023).

Biological target: T1, Cys12 of the KRAS 4B G12C protein (Homo sapiens, UniProt P01116, G12C)
T1 construct: This protein contained 188 amino acids in total, including an N-terminal 6-Histidine tag; made in house; host or cells: E. coli BL21
Assay: In vitro covalent adduct formation (CAF) assay, LC-MS intact mass
Format: binding
Conditions: 10 uM compound, 60 min
Procedure: This Example provides a protocol for assessing covalent adduct formation (CAF) between the compounds of the present application and KRAS.
In vitro covalent adduct formation assay: Covalent adduct formation (CAF) reactions between Cys12 of the KRAS 4B G12C protein and some of the compounds of Tables 1 to 4 were measured in vitro using liquid chromatography-mass spectrometry (LC-MS).
Recombinant Human KRAS 4B protein containing the G12C mutation was used in compound screening experiments. This protein contained 188 amino acids in total, including an N-terminal 6-Histidine tag, followed by a Tobacco Etch Virus (TEV) tag, followed by residues 1-169 of the native KRAS 4B sequence. The exact mass of the protein was 21,310 Da as determined by mass spectrometry. The full amino acid sequence is shown below: […]
The recombinant protein was expressed in E. coli BL21 cells and purified using affinity chromatography via a Ni-NTA column. Protein stocks were nucleotide-exchanged to >95% GDP, concentrated to 4 mg/mL, and stored at −80° C. in storage buffer (50 mM HEPES pH 7.4, 50 mM NaCl, 5 mM MgCl2, 1 mM DTT). Pure KRAS 4B G12C protein was diluted to a concentration of 5 μM in Tris Buffered Saline, pH 7.4. The compounds were dissolved in DMSO and added to the diluted protein to make a 10 μM concentration. The total DMSO concentration in the reaction was 4%. The reaction was mixed by pipetting and incubated at 22° C. for one hour. Aliquots of the reaction were taken over time and diluted 2:1 in 0.1% formic acid. The intact mass of the protein samples was measured by LC-MS using a QExactive+ mass spectrometer (Thermo Scientific). An amount of 500 ng total protein was injected onto a C8 reverse phase column, eluted with a seven-minute gradient of 30%-90% acetonitrile/0.1% formic acid, and analyzed for intact mass by the mass spectrometer. Adducts identified were confirmed to be within 1 Dalton of the expected mass, and the relative ratios of free:adduct protein were used to quantify the percentage of protein bound by the compound. CAF reactions were run in duplicate, with a typical variability of ±5%.

SMILES | % CAF 10 uM @ 60 min [%]
C=CC(=O)N1[C@H](C)CN(c2nc(=O)n3c4c(c(-c5ccc(F)cc5F)c(C(F)(F)F)cc24)SC[C@@H]3CN2C[C@@H]3C[C@H]2CO3)C[C@@H]1C (atropisomer, axis not shown) [Example 1300, (3S,10S)-3-(((1S,4S)-2-oxa-5-azabicyclo[2.2.1]heptan-5-yl)methyl)-7-((3S,5R)-4-acryloyl-3,5-dimethylpiperazin-1-yl)-10-(2,4-difluorophenyl)-9-(trifluoromethyl)-2,3-dihydro-5H-[1,4]thiazino[2,3,4-ij]quinazolin-5-one] | 90.8
C=CC(=O)N1[C@H](C)CN(c2nc(=O)n3c4c(c(-c5ccc(F)cc5F)c(C(F)(F)F)cc24)SC[C@@H]3CN2C[C@@H]3C[C@H]2CO3)C[C@@H]1C (atropisomer, axis not shown) [Example 1301, (3S)-3-((1S,4S)-2-oxa-5-azabicyclo[2.2.1]heptan-5-ylmethyl)-7-((3S,5R)-4-acryloyl-3,5-dimethylpiperazin-1-yl)-10-(2,4-difluorophenyl)-9-(trifluoromethyl)-2H-[1,4]thiazino[2,3,4-ij]quinazolin-5(3H)-one] | 96.4
C=CC(=O)N1CCN(c2nc(=O)n3c4c(c(-c5ccc(F)cc5F)c(C(F)(F)F)cc24)SC[C@@H]3CN2C[C@@H]3C[C@H]2CO3)CC1 (atropisomer, axis not shown) [Example 1305, (3S,10R)-3-(((1S,4S)-2-oxa-5-azabicyclo[2.2.1]heptan-5-yl)methyl)-7-(4-acryloylpiperazin-1-yl)-10-(2,4-difluorophenyl)-9-(trifluoromethyl)-2,3-dihydro-5H-[1,4]thiazino[2,3,4-ij]quinazolin-5-one] | 97.2
C=CC(=O)N1CCN(c2nc(=O)n3c4c(c(-c5ccc(F)cc5F)c(C(F)(F)F)cc24)SC[C@@H]3CN2C[C@@H]3C[C@H]2CO3)CC1 (atropisomer, axis not shown) [Example 1306, (3S,10S)-3-(((1S,4S)-2-oxa-5-azabicyclo[2.2.1]heptan-5-yl)methyl)-7-(4-acryloylpiperazin-1-yl)-10-(2,4-difluorophenyl)-9-(trifluoromethyl)-2,3-dihydro-5H-[1,4]thiazino[2,3,4-ij]quinazolin-5-one] | 96.8
C=CC(=O)N1C[C@H](C)N(c2nc(=O)n3c4c(c(-c5cc(Cl)c(F)cc5F)c(C(F)(F)F)cc24)SC[C@@H]3CN2CCC3(CC2)COC3)C[C@H]1C (atropisomer, axis not shown) [Example 1312, (3S,10S)-3-((2-oxa-7-azaspiro[3.5]nonan-7-yl)methyl)-7-((2S,5R)-4-acryloyl-2,5-dimethylpiperazin-1-yl)-10-(5-chloro-2,4-difluorophenyl)-9-(trifluoromethyl)-2,3-dihydro-5H-[1,4]thiazino[2,3,4-ij]quinazolin-5-one] | 72
C=CC(=O)N1C[C@H](C)N(c2nc(=O)n3c4c(c(-c5cc(Cl)c(F)cc5F)c(C(F)(F)F)cc24)SC[C@@H]3CN2CCC3(CC2)COC3)C[C@H]1C (atropisomer, axis not shown) [Example 1313, (3S,10R)-3-((2-oxa-7-azaspiro[3.5]nonan-7-yl)methyl)-7-((2S,5R)-4-acryloyl-2,5-dimethylpiperazin-1-yl)-10-(5-chloro-2,4-difluorophenyl)-9-(trifluoromethyl)-2,3-dihydro-5H-[1,4]thiazino[2,3,4-ij]quinazolin-5-one] | 96.4
C=CC(=O)N1C[C@H](C)N(c2nc(=O)n3c4c(c(-c5ccc(F)cc5F)c(C(F)(F)F)cc24)SC[C@@H]3CN2CCC3(CC2)COC3)C[C@H]1C (atropisomer, axis not shown) [Example 1314, (3S,10S)-3-((2-oxa-7-azaspiro[3.5]nonan-7-yl)methyl)-7-((2S,5R)-4-acryloyl-2,5-dimethylpiperazin-1-yl)-10-(2,4-difluorophenyl)-9-(trifluoromethyl)-2,3-dihydro-5H-[1,4]thiazino[2,3,4-ij]quinazolin-5-one] | 95.8

Same assay, conditions: 10 uM compound, 60 min incubation

SMILES | % CAF 10 uM @ 60 min [%]
C=CC(=O)N1[C@H](C)CN(c2nc(=O)n3c4c(c(-c5cccc6cnn(C)c56)c(C(F)(F)F)cc24)SC[C@@H]3COC)C[C@@H]1C (atropisomer, axis not shown) [Example 1130, (3S,10S)-7-((3S,5R)-4-acryloyl-3,5-dimethylpiperazin-1-yl)-3-(methoxymethyl)-10-(1-methyl-1H-indazol-7-yl)-9-(trifluoromethyl)-2,3-dihydro-5H-[1,4]thiazino [2,3,4-ij]quinazolin-5-one] | 95.6
C=CC(=O)N1[C@H](C)CN(c2nc(=O)n3c4c(c(-c5cccc6cnn(C)c56)c(C(F)(F)F)cc24)SC[C@@H]3COC)C[C@@H]1C (atropisomer, axis not shown) [Example 1131, (3S,10R)-7-((3S,5R)-4-acryloyl-3,5-dimethylpiperazin-1-yl)-3-(methoxymethyl)-10-(1-methyl-1H-indazol-7-yl)-9-(trifluoromethyl)-2,3-dihydro-5H-[1,4]thiazino [2,3,4-ij]quinazolin-5-one] | 18.2
C=CC(=O)N1[C@H](C)CN(c2nc(=O)n3c4c(c(-c5cccc6cnn(C)c56)c(C(F)(F)F)cc24)SCC2(COC2)C3)C[C@@H]1C (atropisomer, axis not shown) [Example 1132, (S)-8′-((3S,5R)-4-acryloyl-3,5-dimethylpiperazin-1-yl)-11′-(1-methyl-1H-indazol-7-yl)-10′-(trifluoromethyl)-2′H,4′H,6′H-spiro[oxetane-3,3′-[1,4]thiazepino [2,3,4-ij]quinazolin]-6′-one] | 85.6
C=CC(=O)N1[C@H](C)CN(c2nc(=O)n3c4c(c(-c5cccc6cnn(C)c56)c(C(F)(F)F)cc24)SCC2(COC2)C3)C[C@@H]1C (atropisomer, axis not shown) [Example 1133, (R)-8′-((3S,5R)-4-acryloyl-3,5-dimethylpiperazin-1-yl)-11′-(1-methyl-1H-indazol-7-yl)-10′-(trifluoromethyl)-2′H,4′H,6′H-spiro[oxetane-3,3′-[1,4]thiazepino [2,3,4-ij]quinazolin]-6′-one] | 54.1
C=CC(=O)N1[C@H](C)CN(c2nc(=O)n3c4c(c(-c5cc(Cl)c(F)cc5F)c(C(F)(F)F)cc24)SC[C@@H](N2CCOCC2)C3)C[C@@H]1C (atropisomer, axis not shown) [Example 1135, (3S,11S)-8-((3S,5R)-4-acryloyl-3,5-dimethylpiperazin-1-yl)-11-(5-chloro-2,4-difluorophenyl)-3-morpholino-10-(trifluoromethyl)-3,4-dihydro-2H,6H-[1,4]thiazepino [2,3,4-ij]quinazolin-6-one] | 72.7
C=CC(=O)N1[C@H](C)CN(c2nc(=O)n3c4c(c(-c5cc(Cl)c(F)cc5F)c(C(F)(F)F)cc24)SC[C@@H](N2CCOCC2)C3)C[C@@H]1C (atropisomer, axis not shown) [Example 1136, (3S,11R)-8-((3S,5R)-4-acryloyl-3,5-dimethylpiperazin-1-yl)-11-(5-chloro-2,4-difluorophenyl)-3-morpholino-10-(trifluoromethyl)-3,4-dihydro-2H,6H-[1,4]thiazepino [2,3,4-ij]quinazolin-6-one] | 82.7
C=CC(=O)N1[C@H](C)CN(c2nc(=O)n3c4c(c(-c5cc(Cl)c(F)cc5F)c(C(F)(F)F)cc24)SC[C@@H](N2CCCC2)C3)C[C@@H]1C (atropisomer, axis not shown) [Example 1137, (3S,11R)-8-((3S,5R)-4-acryloyl-3,5-dimethylpiperazin-1-yl)-11-(5-chloro-2,4-difluorophenyl)-3-(pyrrolidin-1-yl)-10-(trifluoromethyl)-3,4-dihydro-2H,6H-[1,4]thiazepino [2,3,4-ij]quinazolin-6-one] | 83.4
C=CC(=O)N1[C@H](C)CN(c2nc(=O)n3c4c(c(-c5cc(Cl)c(F)cc5F)c(C(F)(F)F)cc24)SC[C@@H](N2CCCC2)C3)C[C@@H]1C (atropisomer, axis not shown) [Example 1138, (3S,11S)-8-((3S,5R)-4-acryloyl-3,5-dimethylpiperazin-1-yl)-11-(5-chloro-2,4-difluorophenyl)-3-(pyrrolidin-1-yl)-10-(trifluoromethyl)-3,4-dihydro-2H,6H-[1,4]thiazepino [2,3,4-ij]quinazolin-6-one] | 50.5
